Read-outs that look alike come from different tables or passages of the source.
Experiments:
[1] = molecular target: T1, cytoplasmic domain of the human CSF-1R (Homo sapiens, UniProt P07333); test: In vitro kinase assay for colony stimulating factor-1 receptor (AlphaScreen); assay type: biochemical; details: tested at about 1 μM, read-out: CSF-1R percent inhibition
T1 construct: Recombinant protein corresponding to the cytoplasmic domain of the human CSF-1R; purchased Invitrogen Corporation, Carlsbad, Calif; PV3249
T1 sequence (P07333 539-972 limits assumed): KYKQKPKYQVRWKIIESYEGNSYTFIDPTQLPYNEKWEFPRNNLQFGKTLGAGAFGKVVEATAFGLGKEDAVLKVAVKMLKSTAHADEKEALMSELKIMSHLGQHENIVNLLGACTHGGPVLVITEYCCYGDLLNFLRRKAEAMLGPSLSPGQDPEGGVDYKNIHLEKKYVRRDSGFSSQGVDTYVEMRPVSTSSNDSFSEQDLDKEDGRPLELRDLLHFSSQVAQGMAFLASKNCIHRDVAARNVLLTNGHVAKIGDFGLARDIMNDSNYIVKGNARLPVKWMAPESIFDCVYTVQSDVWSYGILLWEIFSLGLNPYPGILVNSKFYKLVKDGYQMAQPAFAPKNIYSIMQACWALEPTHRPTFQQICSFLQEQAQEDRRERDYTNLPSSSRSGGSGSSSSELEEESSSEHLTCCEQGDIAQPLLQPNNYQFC
Outline: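 4 nM enzyme, 1 μM ATP; buffer 50 mM Hepes pH 7.5, 5 mM MgCl2, 10 mM MnCl2, 1.0 mM DTT, 0.1% BSA, 0.01% Tween 80. Readout: AlphaScreen, PT66 acceptor/streptavidin donor, overnight.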

[2] = tested on: MNFS60 (murine AML cells); test: Cell viability assay in MCSF dependent MNFS60 cells (Cell Titer Glo); assay type: cell-based; details: Mus musculus, tested at about 1 μM, read-out: M-NFS-60 CP percent inhibition
Outline: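 Luminescent ATP signal (CellTiter-Glo) after 72 hrs of compound exposure served as the viability measure. Growth was supported by 10 ng/ml MCSF (final), and EC50 values come from fitted triplicate data.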

[3] = molecular target: T2, kinase domain of PDGFRβ (Homo sapiens, UniProt P09619); test: Inhibition of PDGFRb kinase signaling in an in vitro biochemical assay (alphascreen); details: tested at about 1 μM, read-out: PDGFRβ percent inhibition
T2 construct: The kinase domain of PDGFRβ was assayed in 50 mM Hepes; purchased Invitrogen P3082
T2 sequence (P09619 600-962 limits assumed): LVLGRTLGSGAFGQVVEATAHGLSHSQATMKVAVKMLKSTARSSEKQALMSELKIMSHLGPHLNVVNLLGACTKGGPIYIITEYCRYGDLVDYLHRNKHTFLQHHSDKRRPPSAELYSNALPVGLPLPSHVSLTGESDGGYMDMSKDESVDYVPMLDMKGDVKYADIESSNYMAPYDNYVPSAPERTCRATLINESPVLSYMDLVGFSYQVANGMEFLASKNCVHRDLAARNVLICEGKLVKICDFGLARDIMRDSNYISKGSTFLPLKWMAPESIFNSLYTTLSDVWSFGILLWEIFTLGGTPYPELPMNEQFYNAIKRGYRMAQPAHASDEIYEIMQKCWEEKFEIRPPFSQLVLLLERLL

[4] = molecular target: T3, full-length human CSF-1R receptor (Homo sapiens, UniProt P07333); test: In vitro inhibition of CSF-1R receptor tyrosine phosphorylation in transfected HEK293H cells stimulated with MCSF; assay type: cell-based; details: HEK293-H, tested at about 1 μM, read-out: pCSF1R percent inhibition
T3 construct: transfected with the full-length human CSF-1R receptor cloned in house; expressed in transfected cells; host or cells: HEK293H (Invitrogen Cat. #11631017)
T3 sequence (P07333 20-972): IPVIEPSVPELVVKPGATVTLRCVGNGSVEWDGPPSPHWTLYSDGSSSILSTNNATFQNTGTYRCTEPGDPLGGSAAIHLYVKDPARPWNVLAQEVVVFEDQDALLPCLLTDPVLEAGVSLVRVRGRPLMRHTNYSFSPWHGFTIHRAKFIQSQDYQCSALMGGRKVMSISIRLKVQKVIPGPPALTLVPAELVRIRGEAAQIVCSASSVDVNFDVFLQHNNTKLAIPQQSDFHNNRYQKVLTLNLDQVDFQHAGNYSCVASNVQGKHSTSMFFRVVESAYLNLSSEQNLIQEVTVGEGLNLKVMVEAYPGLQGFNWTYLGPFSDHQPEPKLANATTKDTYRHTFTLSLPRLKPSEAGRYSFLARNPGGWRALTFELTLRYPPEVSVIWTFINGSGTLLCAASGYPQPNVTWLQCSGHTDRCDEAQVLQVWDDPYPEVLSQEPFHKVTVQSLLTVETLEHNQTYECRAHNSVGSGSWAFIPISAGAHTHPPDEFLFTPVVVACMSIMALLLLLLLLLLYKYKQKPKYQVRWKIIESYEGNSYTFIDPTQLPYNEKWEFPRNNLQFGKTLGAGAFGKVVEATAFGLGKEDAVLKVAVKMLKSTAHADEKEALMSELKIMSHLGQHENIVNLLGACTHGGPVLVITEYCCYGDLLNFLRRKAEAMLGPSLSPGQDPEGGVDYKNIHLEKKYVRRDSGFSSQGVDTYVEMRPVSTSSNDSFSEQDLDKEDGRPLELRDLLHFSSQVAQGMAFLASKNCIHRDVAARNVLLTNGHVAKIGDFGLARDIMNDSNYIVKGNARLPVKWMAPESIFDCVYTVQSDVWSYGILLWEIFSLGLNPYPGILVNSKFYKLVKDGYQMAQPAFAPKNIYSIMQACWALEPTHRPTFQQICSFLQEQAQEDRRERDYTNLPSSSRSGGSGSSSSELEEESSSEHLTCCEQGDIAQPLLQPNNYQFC
Method: The lysate was then transferred to total CSF-1R antibody coated 96-well plates that had already been blocked with 3% Blocker A from Mesoscale discovery (MSD) for 2 hours and washed afterwards. Lysates were incubated overnight at 4° C. and the plates were then washed 4× with MSD Tris Wash Buffer. […] The plates were read on the Sector 6000 instrument (MSD). Raw data was imported in Abase and EC50s calculated with XL-fit data analysis software.

[5] = molecular target: T4, kinase domain of cKIT (Homo sapiens, UniProt P10721); test: Inhibition of cKIT kinase signaling in an in vitro biochemical assay (alphascreen); details: tested at about 1 μM, read-out: cKit percent inhibition
T4 construct: The kinase domain of cKIT was assayed in 50 mM Hepes; purchased Upstate 14-559
T4 sequence (P10721 589-937 limits assumed): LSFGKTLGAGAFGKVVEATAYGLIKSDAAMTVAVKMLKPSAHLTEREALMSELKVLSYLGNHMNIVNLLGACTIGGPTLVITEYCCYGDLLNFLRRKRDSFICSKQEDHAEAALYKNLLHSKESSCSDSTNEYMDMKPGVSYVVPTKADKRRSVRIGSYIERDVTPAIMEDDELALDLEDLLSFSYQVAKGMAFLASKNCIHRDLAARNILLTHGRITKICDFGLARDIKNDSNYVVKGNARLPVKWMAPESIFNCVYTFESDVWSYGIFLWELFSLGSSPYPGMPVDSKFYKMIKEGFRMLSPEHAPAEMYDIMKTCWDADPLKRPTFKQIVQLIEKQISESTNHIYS

SMILES	inhibition at 1 µM [1]	inhibition at 1 µM ([2]; MCSF dependent MNFS60 cells)	inhibition at 1 µM [3]	inhibition at 1 µM ([4]; HEK293H cells)	inhibition at 1 µM [5]	inhibition at 1 µM ([2]; MNFS60 cells)	inhibition at 1 µM ([1]; compounds of Table 3)	inhibition at 1 µM ([2]; compounds of Table 3)	inhibition at 1 µM ([3]; compounds of Table 3)	inhibition at 1 µM ([4]; compounds of Table 3)	inhibition at 1 µM ([5]; compounds of Table 3)
CNC(=O)c1cc(Oc2ccc3nc(N[C@@H]4CCCC[C@H]4O)sc3c2Br)ccn1 [Example 376, 4-(7-bromo-2-((1R,2R)-2-hydroxycyclohexylamino)benzo[d]thiazol-6-yloxy)-N-methylpicolinamide]	100%	87%	28%	77%	72%	–	–	–	–	–	–
CNC(=O)c1cc(Oc2ccc3nc(N[C@H](C)C4CCCCC4)oc3c2)ccn1 [Compound 54, 4-[2-((R)-1-Cyclohexyl-ethylamino)-benzooxazol-6-yloxy]-pyridine-2-carboxylic acid methylamide]	100%	–	7%	60%	17%	64%	–	–	–	–	–
CNC(=O)c1cc(Oc2ccc3nc(N[C@@H]4c5ccccc5C[C@@H]4O)sc3c2)ccn1 [Example 323, 4-(2-((1R,2S)-2-hydroxy-2,3-dihydro-1H-inden-1-ylamino)benzo[d]thiazol-6-yloxy)-N-methylpicolinamide]	100%	100%	24%	98%	25%	–	–	–	–	–	–
CNC(=O)c1cc(Oc2ccc3nc(NCc4c(OC)cccc4OC)sc3c2)ccn1 [Compound 145, 4-[2-(2,6-Dimethoxy-benzyl-amino)-benzothiazol-6-yloxy]-pyridine-2-carboxylic acid methylamide]	99%	–	25%	98%	34%	100%	–	–	–	–	–
C[C@H](Nc1nc2ccc(Oc3ccnc4ccccc34)cc2s1)C1CCCCC1 [Example 241, (S)-N-(1-cyclohexylethyl)-6-(quinolin-4-yloxy)benzo[d]thiazol-2-amine]	–	–	–	–	–	–	100%	51%	23%	65%	25%
CNC(=O)c1cc(Oc2ccc3nc(NCc4cccc(OC)c4OC)oc3c2)ccn1 [Compound 91, 4-[2-(2,3-Dimethoxy-benzyl-amino)-benzooxazol-6-yloxy]-pyridine-2-carboxylic acid methylamide]	99%	–	–	97%	93%	87%	–	–	–	–	–
CNC(=O)c1cc(Oc2ccc3nc(NCc4ccccc4N4CCOCC4)oc3c2)ccn1 [Compound 88, 4-[2-(2-Morpholin-4-yl-benzylamino)-benzooxazol-6-yloxy]-pyridine-2-carboxylic acid methylamide]	100%	–	–	96%	98%	100%	–	–	–	–	–
CNC(=O)c1cc(Oc2ccc3nc(NCc4ccccc4)oc3c2)ccn1 [Compound 41, 4-(2-Benzylamino-benzooxazol-6-yloxy)-pyridine-2-carboxylic acid methylamide]	100%	–	30%	94%	–	100%	–	–	–	–	–
CNC(=O)c1cc(Oc2ccc3nc(N[C@H](C)c4ccccc4OC)oc3c2)ccn1 [Compound 31, 4-{2-[(R)-1-(2-Methoxy-phenyl)-ethylamino]-benzooxazol-6-yloxy}-pyridine-2-carboxylic acid methylamide]	100%	–	–	79%	18%	57%	–	–	–	–	–
CNC(=O)c1cc(Oc2ccc3nc(Nc4ccc(OC)cc4OC)oc3c2)ccn1 [Compound 28, 4-[2-(2,4-Dimethoxy-phenyl-amino)-benzooxazol-6-yl-oxy]-pyridine-2-carboxylic acid methylamide]	99%	–	98%	88%	–	98%	–	–	–	–	–
CC(=O)Nc1cc(Oc2ccc3nc(NCc4ccccc4Cl)oc3c2)ccn1 [Compound 32, N-{4-[2-(2-Chloro-benzylamino)-benzooxazol-6-yloxy]-pyridin-2-yl}-acetamide]	100%	–	22%	93%	–	70%	–	–	–	–	–
COc1cc2nccc(Oc3ccc4nc(N[C@H](C)c5ccccc5)oc4c3)c2cc1OC [Compound 14, [6-(6,7-Dimethoxy-quinolin-4-yloxy)-benzooxazol-2-yl]-((R)-1-phenyl-ethyl)-amine]	99%	–	85%	71%	–	56%	–	–	–	–	–
CNC(=O)c1cc(Oc2ccc3nc(NC[C@@H]4C[C@H]5CC[C@@H]4C5(C)C)oc3c2)ccn1 [Compound 15, 4-{2-[((1S,2R,4R)-7,7-Dimethyl-bicyclo[2.2.1]hept-2-ylmethyl)-amino]-benzooxazol-6-yloxy}-pyridin-2-carboxylic acid methylamide]	100%	–	88%	92%	–	97%	–	–	–	–	–
CNC(=O)c1cc(Oc2ccc3nc(N[C@H](C)c4cccc5ccccc45)oc3c2)ccn1 [Compound 18, 4-[2-((R)-1-Naphthalen-1-yl-ethylamino)-benzooxazol-6-yloxy]-pyridine-2-carboxylic acid methylamide]	100%	–	35%	74%	–	91%	–	–	–	–	–
CNC(=O)c1cc(Oc2ccc3nc(NCc4cccc(Cl)c4)oc3c2)ccn1 [Compound 42, 4-[2-(3-Chloro-benzylamino)-benzooxazol-6-yloxy]-pyridine-2-carboxylic acid methylamide]	99%	–	12%	97%	–	100%	–	–	–	–	–
CNC(=O)c1cc(Oc2ccc3nc(NCc4ccccc4F)oc3c2)ccn1 [Compound 16, 4-[2-(2-Fluoro-benzylamino)-benzooxazol-6-yloxy]-pyridin-2-carboxylic acid methylamide]	99%	–	20%	81%	–	25%	–	–	–	–	–
CNC(=O)c1cc(Oc2ccc3nc(N[C@H]4C[C@H]5C[C@@H]([C@@H]4C)C5(C)C)oc3c2)ccn1 [Compound 13, 4-[2-((1S,2S,3S,5R)-2,6,6-Trimethyl-bicyclo[3.1.1]hept-3-ylamino)-benzooxazol-6-yloxy]-pyridin-2-carboxylic acid methylamide]	99%	–	65%	75%	–	76%	–	–	–	–	–
CNC(=O)c1cc(Oc2ccc3nc(NCc4ccccc4N(C)C)oc3c2)ccn1 [Compound 85, 4-[2-(2-Dimethylamino-benzylamino)-benzooxazol-6-yloxy]-pyridine-2-carboxylic acid methylamide]	99%	–	–	98%	79%	100%	–	–	–	–	–
CNC(=O)c1cc(Oc2ccc3nc(NC4CCCC(C)C4)oc3c2)ccn1 (stereo not shown) [Compound 10, 4-[2-(3-Methyl-cyclohexyl-amino)-benzooxazol-6-yloxy]-pyridine-2-carboxylic acid methylamide]	99%	–	35%	79%	–	62%	–	–	–	–	–
CNC(=O)c1cc(Oc2ccc3nc(NCc4ccc(Cl)cc4)oc3c2)ccn1 [Compound 27, 4-[2-(4-Chloro-benzylamino)-benzooxazol-6-yloxy]-pyridine-2-carboxylic acid methylamide]	99%	–	28%	96%	–	97%	–	–	–	–	–
